Some test systems named below: LXFL 529; DLD-1; SNB-78; RXF 631; DMS-273; KM-20L2; HOP-18; DMS-114; XF498.
Common to all, as to assay: NCI anticancer screen, dose series, 48 h

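Results reflect a 48-hour exposure of cells in 96-well plates to compound at five concentrations. GI50 marks 50% less growth.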 The source made the active and inactive calls. No stated cut-off is given here; in the data, active = GI50 up to about 1.1 µM and inactive = higher.

Consider `C/C=C/C=N/N(c1nnc(-c2ccccc2)c(-c2ccccc2)n1)S(=O)(=O)c1ccc(C)cc1`, for which the GI50 with LXFL 529 was 7.21 µM (inactive); in the assay with DLD-1, 5.05 µM (inactive); in the assay with SNB-78 it was 15.3 µM (inactive); with RXF 631, 17.5 µM (inactive); in the assay with DMS-273, 11.1 µM (inactive); in the assay with KM-20L2, 13.2 µM (inactive). Also, the GI50 in the assay with HOP-18 was 14.2 µM (inactive); in the assay with DMS-114 it was 13 µM (inactive).

Regarding `COc1ccc2c(c1)CC1c3c(cc4c(c3-2)OCO4)CCN1C` (configuration not stated), the GI50 is 36.5 µM (inactive) in the assay with LXFL 529; 41.9 µM (inactive) in the assay with DLD-1; 40.7 µM (inactive) with SNB-78; 24.5 µM (inactive) in the assay on RXF 631; 25.7 µM (inactive) in the assay with DMS-273; 27.7 µM (inactive) with XF498. The GI50 in the assay on KM-20L2 is 30.8 µM (inactive); with HOP-18, 21.4 µM (inactive); in the assay with DMS-114, 24.3 µM (inactive).

Turning to `Nc1ccc(C(=O)NN2C(=O)C(Cl)C2c2ccccc2O)cc1` (configuration not stated), the GI50 is 54.2 µM (inactive) in the assay with LXFL 529; 54.3 µM (inactive) with DLD-1; > 100 µM (inactive) in the assay on SNB-78; 55.2 µM (inactive) in the assay with DMS-273; 37.3 µM (inactive) in the assay with XF498; 70 µM (inactive) in the assay on KM-20L2. Further, the GI50 in the assay on DMS-114 was 21.1 µM (inactive).

For the compound `O=C(/C=C/c1ccccc1O)c1cccnc1`, the GI50 with LXFL 529, with DLD-1, in the assay with SNB-78, in the assay with RXF 631, in the assay on DMS-273 and with XF498 was > 100 µM (inactive) in each case. The GI50 with KM-20L2 and in the assay on HOP-18 was > 100 µM (inactive) each time.

As for `COC(=O)c1ccc2c(c1)C(NC(C)=O)CCc1cc(OC)c(OC)c(OC)c1-2` (configuration not stated), the GI50 with LXFL 529 is < 0.0154 µM (active); in the assay on DLD-1, 0.0173 µM (active); in the assay with SNB-78, < 0.0152 µM (active); with RXF 631, 0.014 µM (active); in the assay on DMS-273, < 0.01 µM (active); in the assay on XF498, 0.06 µM (active). The GI50 was 0.0118 µM (active) in the assay on KM-20L2, > 40.4 µM (inactive) with HOP-18 and < 0.0126 µM (active) in the assay on DMS-114.

`C(/C=C/N1CCCC1)=C\c1nc(N2CCCC2)c2ccccc2n1`: the GI50 in the assay on LXFL 529 was 14.7 µM (inactive); with DLD-1, 18.7 µM (inactive); with SNB-78, 20.7 µM (inactive); in the assay with RXF 631, 7.73 µM (inactive); in the assay on DMS-273, 18.4 µM (inactive); with KM-20L2, 24.9 µM (inactive). The GI50 is 16.5 µM (inactive) in the assay on HOP-18 and 18.5 µM (inactive) with DMS-114.

Consider `CCOc1ccc(/N=N/c2ccc3oc(=O)c(C(=O)Nc4ccc(OC)cc4)cc3c2)cc1`, for which the GI50 in the assay with LXFL 529 is 6.82 µM (inactive); with DLD-1, 8.32 µM (inactive); with SNB-78 it was 21.3 µM (inactive); in the assay with DMS-273, 25.8 µM (inactive); with KM-20L2, 32.2 µM (inactive).

Turning to `COc1nc(NC2OCC(OC(C)=O)C(OC(C)=O)C2OC(C)=O)c(/N=C\C=N\c2c(NC3OCC(OC(C)=O)C(OC(C)=O)C3OC(C)=O)nc(OC)n(C)c2=O)c(=O)n1C` (configuration not stated), the GI50 in the assay with LXFL 529 is > 100 µM (inactive); in the assay on DLD-1, > 100 µM (inactive); in the assay with SNB-78 it was > 100 µM (inactive); in the assay on DMS-273, > 100 µM (inactive); in the assay with XF498, 17.9 µM (inactive); with KM-20L2 it was > 100 µM (inactive). Besides, the GI50 in the assay with HOP-18 is > 100 µM (inactive).

As for `Oc1nc(S)nc2c1CCCN2`, the GI50 with LXFL 529, in the assay on DLD-1, in the assay on SNB-78, in the assay on RXF 631, in the assay on HOP-18 and in the assay on DMS-114 was > 100 µM (inactive) in each case.

With `COc1ccc(C(C)c2cc3c(cc2OC)OCO3)cc1` (configuration not stated), the GI50 in the assay on LXFL 529 was 0.125 µM (active); in the assay on DLD-1, 0.225 µM (active); in the assay with SNB-78 it was 0.612 µM (active); in the assay with DMS-273 it was 0.106 µM (active); in the assay on KM-20L2, 0.225 µM (active); in the assay with HOP-18, 0.371 µM (active). In addition, the GI50 with DMS-114 was 0.339 µM (active).

With `O=C1O[C@H](C(Cl)(Cl)Cl)N2CCCC12` (some centres not stated), the GI50 was > 100 µM (inactive) in the assay with LXFL 529; > 100 µM (inactive) in the assay on DMS-273; > 100 µM (inactive) in the assay with XF498; > 100 µM (inactive) with KM-20L2; 18.5 µM (inactive) in the assay on HOP-18; > 100 µM (inactive) with DMS-114.

In the case of `O=C(O)CSc1nnc(-c2ccccc2)[nH]1`, the GI50 with LXFL 529, with DLD-1, in the assay with DMS-273, in the assay with XF498, in the assay on KM-20L2 and in the assay with HOP-18 was > 100 µM (inactive) in each case.

For `COc1ccc(C=O)cc1O[Si](C)(C)C(C)(C)C`, the GI50 is > 100 µM (inactive) with LXFL 529; > 100 µM (inactive) with DLD-1; > 100 µM (inactive) with SNB-78; > 100 µM (inactive) in the assay on DMS-273; > 100 µM (inactive) in the assay with KM-20L2; 33.7 µM (inactive) in the assay on HOP-18. In addition, the GI50 with DMS-114 was > 100 µM (inactive).

`CC(=O)OC1CC(n2cc(F)c(=O)[nH]c2=O)OC1CO` (configuration not stated): the GI50 is 0.575 µM (active) with LXFL 529; 28.8 µM (inactive) in the assay on DLD-1; > 100 µM (inactive) with SNB-78; 0.331 µM (active) in the assay on DMS-273; 13.7 µM (inactive) in the assay on XF498; 0.962 µM (active) with KM-20L2. Further, the GI50 in the assay on HOP-18 was 6.61 µM (inactive); with DMS-114 it was 1.36 µM (inactive).

Take `CC(=O)Nc1ccc(C(=O)NN2C(=O)C(Cl)C2c2ccc(Cl)cc2)cc1` (configuration not stated): the GI50 is 50.6 µM (inactive) in the assay on LXFL 529, > 100 µM (inactive) with DLD-1 and 64.4 µM (inactive) with HOP-18.

Turning to `CC(C)=C1CCC(CN(C)C)C1=O` (configuration not stated), the GI50 was 12.8 µM (inactive) with LXFL 529; 6.85 µM (inactive) in the assay on DLD-1; > 10 µM (inactive) with SNB-78; 13.6 µM (inactive) in the assay on RXF 631; 13.7 µM (inactive) in the assay with KM-20L2; 22.1 µM (inactive) in the assay on HOP-18. In addition, in the assay on DMS-114, the GI50 was 16.5 µM (inactive).

Regarding `COC(=O)C1C=NNC1C(=O)OC` (configuration not stated), the GI50 with LXFL 529, in the assay on SNB-78, with RXF 631, with DMS-273, in the assay with XF498 and in the assay on KM-20L2 was > 100 µM (inactive) throughout. Besides, the GI50 in the assay with HOP-18 and in the assay with DMS-114 was > 100 µM (inactive) throughout.

Consider `Cc1cc(NS(=O)(=O)c2ccc(NC(=O)c3ccc(Cl)c4c(Nc5ccc(S(=O)(=O)Nc6cc(C)on6)cc5)c5ccccc5nc34)cc2)no1`, for which the GI50 is 21.6 µM (inactive) with LXFL 529; > 10 µM (inactive) in the assay with DLD-1; 36.1 µM (inactive) in the assay with SNB-78; 22.5 µM (inactive) with DMS-273; 31.8 µM (inactive) in the assay with XF498; 21.5 µM (inactive) in the assay on KM-20L2. Moreover, the GI50 in the assay on HOP-18 was 15.8 µM (inactive); with DMS-114, 18.5 µM (inactive).

As to `CC(C)(C)OC(=O)Cc1ccc2c(ccn2Cc2ccccc2)c1`, the GI50 in the assay with LXFL 529 is 46.7 µM (inactive); in the assay with DLD-1 it was 57.3 µM (inactive); in the assay on SNB-78 it was > 100 µM (inactive); in the assay on RXF 631 it was 25.9 µM (inactive); in the assay on DMS-273, 48 µM (inactive); in the assay with KM-20L2, 26.3 µM (inactive). Further, the GI50 in the assay on HOP-18 was > 100 µM (inactive); in the assay on DMS-114, 18.7 µM (inactive).

As for `O=C(/C=C/c1ccccc1)c1ccc(Cl)cc1Cl`, the GI50 is 15.1 µM (inactive) in the assay with LXFL 529; 17.1 µM (inactive) in the assay on DLD-1; 22.6 µM (inactive) with SNB-78; 38 µM (inactive) in the assay on RXF 631; 15.5 µM (inactive) with DMS-273; 19.5 µM (inactive) in the assay with KM-20L2. In addition, the figures for the GI50 with HOP-18 and with DMS-114 were 22 µM (inactive) and 17.3 µM (inactive), respectively.

Turning to `CN(/N=C/c1ccnc2ccccc12)c1ccc([N+](=O)[O-])cc1[N+](=O)[O-]`, the GI50 in the assay with LXFL 529 was 42.6 µM (inactive); in the assay with DLD-1 it was > 100 µM (inactive); in the assay with SNB-78 it was 42.3 µM (inactive); in the assay on DMS-273, > 100 µM (inactive); with XF498 it was > 100 µM (inactive); with KM-20L2, > 100 µM (inactive). The GI50 with HOP-18 and in the assay with DMS-114 was > 100 µM (inactive) throughout.

`CN(C(=O)C1CC1)C1C2CN3CCC(O2)C13` (configuration not stated): the GI50 in the assay on LXFL 529 is > 100 µM (inactive); in the assay on DLD-1 it was > 100 µM (inactive); in the assay on SNB-78 it was 94.4 µM (inactive); in the assay with DMS-273, > 100 µM (inactive); in the assay on KM-20L2, > 100 µM (inactive); in the assay with HOP-18 it was > 100 µM (inactive). Besides, in the assay with DMS-114, the GI50 is > 100 µM (inactive).

Take `Cn1c2c(c3ccccc31)CCN(CCCCN1CCN(c3cccc(Cl)c3)CC1)C2=O`: the GI50 was 11.1 µM (inactive) in the assay on LXFL 529; 10.6 µM (inactive) with DLD-1; 2.88 µM (inactive) in the assay with SNB-78; 9.06 µM (inactive) in the assay with DMS-273; 14.4 µM (inactive) in the assay with XF498; 4.17 µM (inactive) in the assay with KM-20L2. The GI50 is 29 µM (inactive) in the assay on HOP-18 and 1.67 µM (inactive) in the assay with DMS-114.

On to `C=C(C)C1CC[C@]2(C(=O)O)CCC3(C)[C@H](CCC4[C@@]5(C)CC[C@H](OC6OC(CO)C(O)C6OC6OC(C)C(O)C(O)C6O)[C@@](C)(CO)C5CC[C@]43C)C12` (some centres not stated), for which the GI50 with LXFL 529 is > 100 µM (inactive); with DLD-1, 33.9 µM (inactive); in the assay with SNB-78, > 100 µM (inactive); in the assay on RXF 631, > 100 µM (inactive); in the assay on DMS-273, > 100 µM (inactive); in the assay with XF498, > 100 µM (inactive). For the same compound, the GI50 with KM-20L2 and in the assay with DMS-114 was > 100 µM (inactive) each time.

Consider `C1CC2=C(C1)C1=S(S2)SC2=C1CCC2`, for which the GI50 in the assay with LXFL 529, in the assay on DLD-1, in the assay with SNB-78, in the assay with RXF 631, with DMS-273 and in the assay with KM-20L2 was > 100 µM (inactive) in each case. Moreover, the GI50 in the assay with HOP-18 and in the assay on DMS-114 was > 100 µM (inactive) throughout.
